Columns and labels:
Settings in all cases: treatment: drug + dasatinib (fixed dose, not stated); 5 days
769-P [1] = assay: AUC of dose-response viability curve, drug + dasatinib, normalised to DMSO (arbitrary (AUC of normalised viability)); higher = less growth inhibition
Method: (§1)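 Primary HTS combination arm: 8 RCC cell lines treated with 8 doses (up to 10 uM) of each library drug plus a fixed dose of dasatinib (dose not stated) for 5 days; viability read by CellTiter-Glo and normalised to DMSO. GI50 was fitted with XLfit, AUC is the area under the dose-response curve, and minimum viability is the lowest fraction of DMSO viability across doses.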

CAKI-1 [2] = assay: as above
Method: as §1

A498 [3] = assay: as above
Method: as §1

TK-10 [4] = assay: as above
Method: as §1

UO-31 [5] = assay: as above
Method: as §1

SN12C [6] = assay: as above
Method: as §1

786-O [7] = assay: as above
Method: as §1

ACHN [8] = assay: as above
Method: as §1

769-P [9] = assay: GI50 of drug in presence of dasatinib; higher = less potent
Method: as §1

CAKI-1 [10] = assay: as above
Method: as §1

A498 [11] = assay: as above
Method: as §1

TK-10 [12] = assay: as above
Method: as §1

UO-31 [13] = assay: as above
Method: as §1

SN12C [14] = assay: as above
Method: as §1

786-O [15] = assay: as above
Method: as §1

ACHN [16] = assay: as above
Method: as §1

769-P [17] = assay: minimum viability across doses, drug + dasatinib, relative to DMSO (fraction); higher = less growth inhibition
Method: as §1

CAKI-1 [18] = assay: as above
Method: as §1

A498 [19] = assay: as above
Method: as §1

TK-10 [20] = assay: as above
Method: as §1

UO-31 [21] = assay: as above
Method: as §1

SN12C [22] = assay: as above
Method: as §1

786-O [23] = assay: as above
Method: as §1

ACHN [24] = assay: as above
Method: as §1

Structure (SMILES) | AUC of dose-response viability curve (769-P [1]) | AUC of dose-response viability curve (CAKI-1 [2]) | AUC of dose-response viability curve (A498 [3]) | AUC of dose-response viability curve (TK-10 [4]) | AUC of dose-response viability curve (UO-31 [5]) | AUC of dose-response viability curve (SN12C [6]) | AUC of dose-response viability curve (786-O [7]) | AUC of dose-response viability curve (ACHN [8]) | GI50 of drug (769-P [9]) | GI50 of drug (CAKI-1 [10]) | GI50 of drug (A498 [11]) | GI50 of drug (TK-10 [12]) | GI50 of drug (UO-31 [13]) | GI50 of drug (SN12C [14]) | GI50 of drug (786-O [15]) | GI50 of drug (ACHN [16]) | minimum viability across doses (769-P [17]) | minimum viability across doses (CAKI-1 [18]) | minimum viability across doses (A498 [19]) | minimum viability across doses (TK-10 [20]) | minimum viability across doses (UO-31 [21]) | minimum viability across doses (SN12C [22]) | minimum viability across doses (786-O [23]) | minimum viability across doses (ACHN [24])
CNC(=O)c1ccc(-c2cnc3ncc(Cc4ccc5ncccc5c4)n3n2)cc1F + Cc1nc(Nc2ncc(C(=O)Nc3c(C)cccc3Cl)s2)cc(N2CCN(CCO)CC2)n1 [dasatinib] | 2.42 | 2.26 | 3.63 | 2.44 | 4.11 | 2.42 | 2.19 | 2.05 | 7570 nM | > 10000 nM | > 10000 nM | > 10000 nM | > 10000 nM | > 10000 nM | > 10000 nM | 9070 nM | 0.457 | 0.571 | 0.918 | 0.656 | 0.991 | 0.659 | 0.576 | 0.497
COc1cc2c(Oc3ccc(NC(=O)C4(C(=O)Nc5ccc(F)cc5)CC4)cc3F)ccnc2cc1OCCCN1CCOCC1 + Cc1nc(Nc2ncc(C(=O)Nc3c(C)cccc3Cl)s2)cc(N2CCN(CCO)CC2)n1 [dasatinib] | 1.78 | 1.48 | 2.47 | 1.94 | 1.95 | 1.56 | 1.65 | 1.36 | 458 nM | 135 nM | 1430 nM | 558 nM | 393 nM | 226 nM | 496 nM | 112 nM | 0.00976 | 0.00437 | 0.0345 | 0.00508 | 0.011 | 0.0105 | 0.00858 | 0.00242
Nc1nc(Nc2ccc(S(N)(=O)=O)cc2)nn1C(=O)c1c(F)cccc1F + Cc1nc(Nc2ncc(C(=O)Nc3c(C)cccc3Cl)s2)cc(N2CCN(CCO)CC2)n1 [dasatinib] | 2.24 | 1.99 | 2.82 | 2.57 | 3.26 | 2.48 | 1.7 | 1.56 | 3160 nM | 1250 nM | 4680 nM | > 10000 nM | 4120 nM | 3690 nM | 343 nM | 334 nM | 0.0371 | 0.0394 | 0.269 | 0.623 | 0.00972 | 0.142 | 0.00366 | 0.00508
O=C1NC(=O)/C(=C/c2ccc3nccc(-c4ccncc4)c3c2)S1 + Cc1nc(Nc2ncc(C(=O)Nc3c(C)cccc3Cl)s2)cc(N2CCN(CCO)CC2)n1 [dasatinib] | 1.8 | 1.29 | 2.01 | 2.17 | 2.17 | 1.76 | 1.53 | 1.45 | 294 nM | 75 nM | 383 nM | 930 nM | 500 nM | 304 nM | 136 nM | 101 nM | 0.261 | 0.0502 | 0.138 | 0.318 | 0.0612 | 0.243 | 0.00524 | 0.108
COc1ncc(-c2ccc3nccc(-c4ccnnc4)c3c2)cc1NS(=O)(=O)c1ccc(F)cc1F + Cc1nc(Nc2ncc(C(=O)Nc3c(C)cccc3Cl)s2)cc(N2CCN(CCO)CC2)n1 [dasatinib] | 0.957 | 0.66 | 1.82 | 0.955 | 0.993 | 1.1 | 0.564 | 0.822 | 18.4 nM | 7.86 nM | 168 nM | 16.5 nM | 28.1 nM | 19 nM | 4.97 nM | 8.21 nM | 0.0228 | 0.00939 | 0.158 | 0.0271 | 0.00632 | 0.104 | 0.00295 | 0.0717
CCn1c(-c2nonc2N)nc2c(C#CC(C)(C)O)ncc(OC[C@H]3CCCNC3)c21 + Cc1nc(Nc2ncc(C(=O)Nc3c(C)cccc3Cl)s2)cc(N2CCN(CCO)CC2)n1 [dasatinib] | 2.43 | 2.29 | 3.07 | 2.22 | 2.8 | 2.45 | 1.74 | 1.8 | > 10000 nM | 2670 nM | > 10000 nM | 1930 nM | > 10000 nM | > 10000 nM | 213 nM | 456 nM | 0.627 | 0.305 | 0.802 | 0.421 | 0.642 | 0.66 | 0.189 | 0.274
CCc1cc(Nc2nccc(-c3c(-c4ccc(OC)c(C(=O)Nc5c(F)cccc5F)c4)nc4ccccn34)n2)c(OC)cc1N1CCC(N2CCN(S(C)(=O)=O)CC2)CC1 + Cc1nc(Nc2ncc(C(=O)Nc3c(C)cccc3Cl)s2)cc(N2CCN(CCO)CC2)n1 [dasatinib] | 2.19 | 2.19 | 3.42 | 2.59 | 3.28 | 2.4 | 2.71 | 1.97 | 3100 nM | 3060 nM | > 10000 nM | > 10000 nM | > 10000 nM | > 10000 nM | > 10000 nM | > 10000 nM | 0.445 | 0.406 | 0.849 | 0.678 | 0.86 | 0.644 | 0.641 | 0.488
C[C@@H]1CN(CC(=O)Nc2ccc3c(c2)Cc2cccc(-c4cc(=O)cc(N5CCOCC5)o4)c2S3)C[C@H](C)O1 + Cc1nc(Nc2ncc(C(=O)Nc3c(C)cccc3Cl)s2)cc(N2CCN(CCO)CC2)n1 [dasatinib] | 2.37 | 2.15 | 3.33 | 2.69 | 4.18 | 2.48 | 2.51 | 2.04 | 5520 nM | 3790 nM | > 10000 nM | > 10000 nM | 6110 nM | > 10000 nM | 3470 nM | 4110 nM | 0.373 | 0.165 | 0.771 | 0.589 | 0.213 | 0.511 | 0.282 | 0.381
c1ccc2c(CCNc3ccc(Nc4ccncc4)cc3)c[nH]c2c1 + Cc1nc(Nc2ncc(C(=O)Nc3c(C)cccc3Cl)s2)cc(N2CCN(CCO)CC2)n1 [dasatinib] | 1.69 | 1.49 | 2.32 | 1.83 | 2.3 | 1.86 | 1.39 | 1.1 | 280 nM | 143 nM | 748 nM | 531 nM | 372 nM | 672 nM | > 10000 nM | 69.5 nM | 0.0334 | 0.0392 | 0.0451 | 0.00918 | 0.0188 | 0.00337 | 0.00475 | 0.00193
O=c1cc(-c2cccc3c2Sc2ccccc2S3)oc(N2CCOCC2)c1 + Cc1nc(Nc2ncc(C(=O)Nc3c(C)cccc3Cl)s2)cc(N2CCN(CCO)CC2)n1 [dasatinib] | 2.38 | 2.12 | 3.16 | 2.57 | 3.22 | 2.48 | 2.43 | 1.86 | > 10000 nM | 4310 nM | > 10000 nM | > 10000 nM | > 10000 nM | > 10000 nM | > 10000 nM | 20 nM | 0.635 | 0.31 | 0.747 | 0.682 | 0.7 | 0.659 | 0.561 | 0.449
CCn1cc(-c2ccnc3[nH]c(-c4cccc(CN(C)C)c4)cc23)c(-c2ccc(NC(=O)N(C)C)cc2)n1 + Cc1nc(Nc2ncc(C(=O)Nc3c(C)cccc3Cl)s2)cc(N2CCN(CCO)CC2)n1 [dasatinib] | 2.05 | 1.42 | 2.97 | 2.03 | 3.82 | 1.61 | 1.39 | 1.33 | 785 nM | 96.9 nM | 2170 nM | 635 nM | 2870 nM | 128 nM | 28.4 nM | 73.7 nM | 0.0742 | 0.0134 | 0.131 | 0.0524 | 0.0175 | 0.00824 | 0.0106 | 0.00393
COc1ccc(-c2ccc3c(N4CCOCC4)nc(N4C[C@@H](C)O[C@@H](C)C4)nc3n2)cc1CO + Cc1nc(Nc2ncc(C(=O)Nc3c(C)cccc3Cl)s2)cc(N2CCN(CCO)CC2)n1 [dasatinib] | 1.75 | 1.56 | 2.77 | 1.87 | 2.56 | 2.03 | 1.93 | 1.33 | 360 nM | 250 nM | 1830 nM | 379 nM | 1100 nM | 482 nM | 478 nM | 50.7 nM | 0.136 | 0.0643 | 0.252 | 0.168 | 0.0195 | 0.196 | 0.176 | 0.0839
CNC(=O)c1c(F)cccc1Nc1nc(Nc2cc3c(cc2OC)CCN3C(=O)CN(C)C)nc2[nH]ccc12 + Cc1nc(Nc2ncc(C(=O)Nc3c(C)cccc3Cl)s2)cc(N2CCN(CCO)CC2)n1 [dasatinib] | 1.96 | 1.87 | 3.85 | 2.17 | 3.45 | 2.11 | 1.84 | 1.62 | 1300 nM | 919 nM | 8320 nM | 1660 nM | 2920 nM | 1520 nM | 686 nM | 434 nM | 0.0146 | 0.00312 | 0.015 | 0.189 | 0.0173 | 0.004 | 0.00553 | 0.0022
Cn1cc(-c2ccc3nnc(C(F)(F)c4ccc5ncccc5c4)n3n2)cn1 + Cc1nc(Nc2ncc(C(=O)Nc3c(C)cccc3Cl)s2)cc(N2CCN(CCO)CC2)n1 [dasatinib] | 2.32 | 2.24 | 3.2 | 2.6 | 3.52 | 2.34 | 2.54 | 1.87 | 7400 nM | > 10000 nM | > 10000 nM | > 10000 nM | > 10000 nM | > 10000 nM | > 10000 nM | > 10000 nM | 0.469 | 0.592 | 0.854 | 0.646 | 0.923 | 0.614 | 0.566 | 0.499

— the supplement of paper PMC8149375
